Assay results from patent US10190166B2, “Methods for identifying dendritic cell subsets, for determining if a patient is developing a regulatory or an effector immune response, and for determining response to immunotherapy” (STALLERGENES, priority 2011, dated 2019).
“And” between values parts separate entries of the source, which are not always exact repeats. Equal entries are not always repeated.

Legend:
monocyte-derived DCs [1] = assay: Anti-inflammatory effect: treated DCs stimulated with LPS 24 h (costimulatory molecules, cytokine secretion); format: cell-based, human
monocyte-derived DCs [2] = assay: Cell surface phenotype of treated DCs by flow cytometry; format: cell-based, human; conditions: treatment during the differentiation step
Description: For immuno-fluorescence staining, cells were harvested, washed in PBS and incubated for 20 min at 4° C. with the following mAbs: FITC anti-CD14, FITC anti-CD80, PE anti-CD86, PC5 anti-CD83 (Beckman coulter), FITC anti-ILT2, PE anti-ILT4, PC5 anti-ILT3 (R&D systems) or PE-CD11c (Miltenyi Biotec, Paris, France). Cells were stained with corresponding isotype-matched control mAbs and analyzed by flow cytometry.

monocyte-derived DCs [3] = assay: Western blot analysis of marker proteins in treated DCs; format: cell-based, human
Description: NuPAGE-Western blotting was carried out according to standard procedures (NuPAGE technical guide, Invitrogen). […] H00004599-[…], 1/500) from Abnova (Taipei, Taiwan), anti-CD71 (Cat. no. […] The rabbit polyclonal serum raised against GILZ was previously described (see […], et al. […] Peroxidase-conjugated goat anti-mouse and anti-rabbit secondary antibodies were both obtained from Jackson Immunoresearch Laboratories (Sufflok, England), and the chemiluminescence detection kit was from Pierce (SuperSignal West Pico Chemiluminescent Substrate, Fisher Scientific, Illkirch, France). Western blot signals were acquired with a CCD camera (Fusion FX7, Vilber-Lourmat, Marnes La Vallée, France) and band volume was quantified using the Bio-1D software (Vilber-Lourmat). β-actin or GAPDH were used as loading controls.

monocyte-derived DCs [4] = assay: Label free MS analysis of DC subtypes; format: cell-based, human
Description: Label-free MS of digested total protein lysates (solubilized in buffer A as described above), was conducted to compare proteomes of control, effector and regulatory DC subsets. Briefly, a common ultrafiltration device was used for detergent removal (CHAPS) to enable subsequent proteome analysis (Filter-aided sample preparation, FASP). 100 μg of proteins were mixed with urea-containing buffers in the filter unit (Amicon Ultra-0.5 ml, Ultracel-10 kDa Membrane, Millipore, Molsheim, France), reduced with 20 mM DTT, alkylated with 50 mM iodoacetamide, digested with Lys-C (37° C., 5 h, ratio 1/50, Sigma-Aldrich) and then with trypsin (37° C., overnight, ratio 1/50). After digestion, peptides were desalted using RPC18 Dynal magnetic beads (Invitrogen), acidified with FA and 1.5 to 2 μg of tryptic peptides were analyzed by nanoLC-MS or nanoLC-MS/MS.
In MS mode, full scan MS spectra were acquired from m/z 280 to 1500 (1 MS spectrum of 0.8 s) during 270 min. Ion intensities recorded in LC-MS data were analyzed using Progenesis LC-MS v3.1 software (Non Linear Dynamics) to provide reliable measurements of peptide (feature) abundance across samples. Internal calibration was performed by enabling the lock mass option in MS mode (minimum intensity>200 and mass±0.015 Da). […] Targeted nanoLC-MS/MS were accomplished by means of an inclusion mass list in the MS instrument method. […] Identification parameters were identical to those described for 2D-DIGE analysis. […] For accurate mass measurements, the lock mass option was enabled in MS and MS/MS mode.

monocyte-derived DCs [5] = assay: Quantitative real-time PCR of marker genes in treated DCs
Description: Total RNA was extracted from treated DCs or PBMCs using RNeasy mini kits (Qiagen, Courtaboeuf, France) and cDNAs were obtained using TaqMan reverse transcription reagents (Applied Biosystems, Les Ulis, France) as per the manufacturer's instructions. Messenger RNA expression was evaluated by quantitative PCR on a 7900HT real-time PCR system (Applied Biosystems) with predesigned Taqman gene expression assays and reagents, according to the manufacturer's instructions. Expression of the following genes was assessed in DCs or PBMCs: GILZ (Hs00608272_m1), IDO (Hs00158032_m1), RALDH-1 (Hs00167445_m1), RALDH-2 (Hs00180254_m1), ANXA1 (Hs00167549_m1), CLIC2 (Hs01574555_m)1, FKBP5 (Hs01561001_m1), F13A (Hs00173388_m1), GPX1 (Hs00829989_gH), IMDH2 (Hs00168418_m1), OSF1 (Hs00273458_m1), TPP1 (Hs00166099_m1), C1QA (Hs00381122_m1), C1QB (Hs00608019_m1), C1QC (Hs00757779_m1), CATB (Hs00947433_m1), CATC (Hs00175188_m1), STAB1 (Hs01109068_m1), MRC1 (Hs00267207_m1), CD71 (Hs00951083_m1), FSCN1 (Hs00979631_g1), IRF4 (Hs01056533_m1), MX1 (Hs00895608_m1), NMES1 (Hs00260902_m1), TRAF1 (Hs01090170_m1). Expression of the following genes was assessed in T cells: IFNg (Hs00989291_m1), IL-4 (Hs00174122_m1), IL-10 (Hs00961622_m1) and IL-17A (Hs00174383_m1). Data were interpreted for each target gene in comparison with endogenous β-actin (Hs99999903_m1) or GAPDH (Hs03929097_g1) as controls. The relative amount of target genes in each sample was calculated in comparison with the calibrator sample using the ΔΔCt The magnitude of gene induction was calculated using the formula 2^−ΔΔCt=2^(−ΔCt for stimulated cells−ΔCt for unstimulated cells).

[6] = tolerogenic DC models (model B)
[7] = moDCs treated 24 h, one value per peptide

C=C1/C(=C\C=C2/CCC[C@]3(C)[C@@H]([C@H](C)CCCC(C)(C)O)CC[C@@H]23)C[C@@H](O)C[C@@H]1O [VitD3, 1,25 dihydroxy-vitamin D3]
IL-6, IL-8 and TNF-α secretion after LPS stimulation (monocyte-derived DCs [1]): left uninhibited | CD14 expression (monocyte-derived DCs [2]): CD14^med | ILT3 expression (monocyte-derived DCs [2]): ILT3^high

TGFb: cytokine TGFb added during the DC differentiation step (20 ng/ml)
CD14 expression (monocyte-derived DCs [2]): CD14^neg | ILT2 expression (monocyte-derived DCs [2]): ILT2^med | ANXA1, CATC and GILZ proteins (monocyte-derived DCs [3]; [6]): upregulated

C[C@@H]1C[C@H]2[C@@H]3CCC4=CC(=O)C=C[C@]4(C)[C@@]3(F)[C@@H](O)C[C@]2(C)[C@@]1(O)C(=O)CO [DEX, dexamethasone]
abundance of the m/z 865.70 molecular ion (monocyte-derived DCs [4]; moDCs treated 24 h): 16300 | Annexin A5 (ANXA5) average normalized abundance (monocyte-derived DCs [4]; [7]): 16940 and 11135 | Annexin A6 (ANXA6) average normalized abundance (monocyte-derived DCs [4]; [7]): 3594 and 2084 | Chloride intracellular channel protein 2 (CLIC2) average normalized abundance (monocyte-derived DCs [4]; [7]): 3857 and 4306 | Complement C1q subcomponent subunit C (C1QC) average normalized abundance (monocyte-derived DCs [4]; [7]): 4308 and 4812 and 2406 and 2725 | Cystatin-C (CYTC) average normalized abundance (monocyte-derived DCs [4]; [7]): 7747 and 6610 and 5925 | Dipeptidyl peptidase 1 (CATC) average normalized abundance (monocyte-derived DCs [4]; [7]): 9396 and 14732 and 15459 | Gelsolin precursor (GELS) average normalized abundance (monocyte-derived DCs [4]; [7]): 5372 and 6735 | Integrin alpha-M (ITAM) average normalized abundance (monocyte-derived DCs [4]; [7]): 3832 | Interferon-induced GTP-binding protein Mx1 (MX1) average normalized abundance (monocyte-derived DCs [4]; [7]): 1192 | Neuroblast differentiation-associated protein AHNAK (AHNK) average normalized abundance (monocyte-derived DCs [4]; [7]): 2629 and 3047 | Normal mucosa of esophagus-specific gene 1 protein (NMES1) average normalized abundance (monocyte-derived DCs [4]; [7]): 2947 and 2380 | Peptidyl-prolyl cis-trans isomerase A (PPIA) average normalized abundance (monocyte-derived DCs [4]; [7]): 18929 and 14751 | Peptidyl-prolyl cis-trans isomerase FKBP5 average normalized abundance (monocyte-derived DCs [4]; [7]): 3640 and 5224 and 4046 | Pleckstrin (PLEK) average normalized abundance (monocyte-derived DCs [4]; [7]): 5583 and 4404 | Proteasome subunit alpha type-7 (PSA7) average normalized abundance (monocyte-derived DCs [4]; [7]): 3617 and 2212 | Sequestosome-1 (SQSTM) average normalized abundance (monocyte-derived DCs [4]; [7]): 1340 and 2411 | TNF receptor-associated factor 1 (TRAF1) average normalized abundance (monocyte-derived DCs [4]; [7]): 1732 and 2223 | Transferrin receptor protein 1 (TFR1) average normalized abundance (monocyte-derived DCs [4]; [7]): 706 and 1195 | WD repeat-containing protein 1 (WDR1) average normalized abundance (monocyte-derived DCs [4]; [7]): 2581 and 2605 | C1QC specific peptides increase (monocyte-derived DCs [4]; tolerogenic DEX-DCs): ≤ 5 fold | C1QA, C1QB and STAB1 gene expression increase (monocyte-derived DCs [5]; DEX-DCs compared with Ctrl-DCs): ≤ 12 fold | FKBP5 and F13A gene expression increase (monocyte-derived DCs [5]; DEX-DCs relative to Ctrl-DCs): ≤ 15 fold | ANXA1 protein level (monocyte-derived DCs [3]; DEX-DCs compared with Ctrl-DCs): 1.4 fold | FKBP5 protein induction (monocyte-derived DCs [3]; DEX-DCs compared with Ctrl-DCs): 2.6 fold | C1Q protein level (monocyte-derived DCs [3]; regulatory DEX-DCs): 12 fold | CATC protein level (monocyte-derived DCs [3]; regulatory DEX-DCs): 1.5 fold | MRC1 protein level (monocyte-derived DCs [3]; regulatory DEX-DCs): 1.4 fold | STAB1 protein level (monocyte-derived DCs [3]; regulatory DEX-DCs): 2.2 fold

B1: IL-10: cytokine IL-10 added during the DC differentiation step (10 ng/ml) (protein, UniProt P22301 19-178, looked up)
Interleukin-10: SPGQGTQSENSCTHFPGNLPNMLRDLRDAFSRVKTFFQMKDQLDNLLLKESLLEDFKGYLGCQALSEMIQFYLEEVMPQAENQDPDIKAHVNSLGENLKTLRLRLRRCHRFLPCENKSKAVEQVKNAFNKLQEKGIYKAMSEFDIFINYIEAYMTMKIRN
CATC gene induction (monocyte-derived DCs [5]; [6]): detected | CD14 expression (monocyte-derived DCs [2]): CD14^high | ILT4 expression (monocyte-derived DCs [2]): ILT4high | F13A, MRC1 and STAB1 proteins (monocyte-derived DCs [3]; tolerogenic DC models (model B), DEX 24 h or differentiation): upregulated
